Experimental data reported in patent US20170305883A1, “Compositions and Methods for Inhibiting BMP” (THE BRIGHAM AND WOMEN'S HOSPITAL, INC., priority 2014, published 2017).

The compounds below were run against PKC-η (Homo sapiens, UniProt P24723) (assay: Kinome profiling). Conditions: 100 nM, read-out: Inhibitory activity.
Type: biochemical
Experimental: The kinome-wide selectivity was determined following the methods previously reported by Mohedas et al., ACS Chem Biol 2013, 8, 1291-1302 and […] et al., PLoS One 2013, 8, e62721.

Sequence of PKC-η (P24723 whole entry): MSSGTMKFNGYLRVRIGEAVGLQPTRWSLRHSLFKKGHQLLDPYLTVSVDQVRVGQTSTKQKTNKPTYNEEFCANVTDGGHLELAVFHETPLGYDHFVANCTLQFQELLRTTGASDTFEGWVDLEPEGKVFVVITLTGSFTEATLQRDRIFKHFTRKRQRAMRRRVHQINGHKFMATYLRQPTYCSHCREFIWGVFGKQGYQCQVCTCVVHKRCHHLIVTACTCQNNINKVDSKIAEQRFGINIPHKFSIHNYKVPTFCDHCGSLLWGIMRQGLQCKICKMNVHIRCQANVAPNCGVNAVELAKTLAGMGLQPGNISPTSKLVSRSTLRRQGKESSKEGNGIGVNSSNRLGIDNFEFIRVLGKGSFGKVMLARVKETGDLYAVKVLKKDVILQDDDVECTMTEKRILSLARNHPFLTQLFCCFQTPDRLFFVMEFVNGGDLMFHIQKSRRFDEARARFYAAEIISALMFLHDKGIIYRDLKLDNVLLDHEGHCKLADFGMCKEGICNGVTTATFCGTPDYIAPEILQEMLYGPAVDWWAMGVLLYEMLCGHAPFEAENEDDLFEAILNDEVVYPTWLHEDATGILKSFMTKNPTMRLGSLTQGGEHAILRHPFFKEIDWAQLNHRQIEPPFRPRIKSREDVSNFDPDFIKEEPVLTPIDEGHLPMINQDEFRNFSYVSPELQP

SMILES | inhibition at 0.1 µM
COc1cc(-c2cc(-c3ccc(N4CCNCC4)cc3)cnc2N)cc(OC)c1OC [Compound 15, 5-(4-(piperazin-1-yl)phenyl)-3-(3,4,5-trimethoxyphenyl)pyridin-2-amine] | 5%

What follows are compounds tested against T1, ALK2 (Homo sapiens, UniProt Q04771, Q207D) (assay: Thermal shift kinase assay). Conditions: ALK2 ΔTm minus ALK5 ΔTm.
T1 construct: His tag (N, cleaved yes); made in house; host or cells: Sf9 insect cells (baculovirus)
T1 sequence (Q04771 201-499 Q207D): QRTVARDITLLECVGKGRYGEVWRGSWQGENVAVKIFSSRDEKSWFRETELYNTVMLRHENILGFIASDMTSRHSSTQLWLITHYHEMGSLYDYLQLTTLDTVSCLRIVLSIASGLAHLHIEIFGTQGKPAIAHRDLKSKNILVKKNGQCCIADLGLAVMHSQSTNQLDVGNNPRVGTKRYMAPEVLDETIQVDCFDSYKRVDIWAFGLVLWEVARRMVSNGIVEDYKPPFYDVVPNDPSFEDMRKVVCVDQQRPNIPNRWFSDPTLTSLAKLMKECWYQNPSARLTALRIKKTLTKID
Type: binding
Experimental: Thermal melting experiments were performed using a Real Time PCR machine Mx3005p (Stratagene) with a protein concentration of 1-2 μM and 10 μM inhibitor as described by Niesen et al., Nat Protoc 2007, 2, 2212-21. Recombinant human kinases for DSF screening were prepared by SGC using the published methods of […] et al., PLoS One 2013, 8, e62721. The potency and selectivity of certain compounds of the invention based on thermal shift kinase and ligand induced transcriptional activity assays are shown in Table 2.

SMILES | ΔTm Diff.
COc1cc(-c2cc(-c3ccc(N4CCNCC4)cc3)cnc2N)cc(OC)c1OC [Compound 15, 5-(4-(piperazin-1-yl)phenyl)-3-(3,4,5-trimethoxyphenyl)pyridin-2-amine] | 1.2 °C
COc1cc(-c2cncc(-c3ccc(N4CCNCC4)cc3)c2)cc(OC)c1OC [Compound 26, 1-(4-(5-(3,4,5-trimethoxyphenyl)pyridin-3-yl)phenyl)piperazine] | 3.7 °C
COc1cccc(-c2cc(-c3ccc(N4CCNCC4)cc3)cnc2N)c1 [Compound 18, 3-(3-methoxyphenyl)-5-(4-(piperazin-1-yl)phenyl)pyridin-2-amine] | 3.8 °C
COc1ccc(-c2cc(-c3ccc(N4CCNCC4)cc3)cnc2N)cc1OC [Compound 16, 3-(3,4-dimethoxyphenyl)-5-(4-(piperazin-1-yl)phenyl)pyridin-2-amine] | 4.3 °C
Nc1ncc(-c2ccc(N3CCNCC3)cc2)cc1-c1cccc2ncccc12 [Compound 31, 5-(4-(piperazin-1-yl)phenyl)-3-(quinolin-5-yl)pyridin-2-amine] | 4.2 °C
COc1cc(-c2cnc(N)c(-c3cc(OC)c(OC)c(OC)c3)c2)ccc1O [Compound 12, 4-(6-amino-5-(3,4,5-trimethoxyphenyl)pyridin-3-yl)-2-methoxyphenol] | 1.7 °C
COc1cc(-c2cc(-c3cccc(N4CCNCC4)c3)cnc2N)cc(OC)c1OC [Compound 14, 5-(3-(piperazin-1-yl)phenyl)-3-(3,4,5-trimethoxyphenyl)pyridin-2-amine] | 0.8 °C
COc1ccc(-c2cc(-c3ccc(N4CCNCC4)cc3)cnc2N)cc1 [Compound 20, 3-(4-methoxyphenyl)-5-(4-(piperazin-1-yl)phenyl)pyridin-2-amine] | 4.5 °C
Nc1ncc(-c2ccc(N3CCNCC3)cc2)cc1-c1ccnc2ccccc12 [Compound 29] | 3.4 °C
COc1cc(-c2cc(-c3ccc(O)cc3)cnc2N)cc(OC)c1OC [Compound 11, 4-(6-Amino-5-(3,4,5-trimethoxyphenyl)pyridin-3-yl)phenol] | 1.5 °C
CC(C)Oc1cccc(-c2cc(-c3ccc(N4CCNCC4)cc3)cnc2N)c1 [Compound 21, 3-(3-isopropoxyphenyl)-5-(4-(piperazin-1-yl)phenyl)pyridin-2-amine] | 1.0 °C
COc1cc(-c2cc(-c3ccc(N4CCNCC4)cc3)cnc2Cl)cc(OC)c1OC [Compound 27, 1-(4-(6-chloro-5-(3,4,5-trimethoxyphenyl)pyridin-3-yl)phenyl)piperazine] | 3.8 °C
COc1cc(-c2cc(-c3ccc(N4CCNCC4)cc3)cnc2N)ccc1Cl [Compound 22, 3-(4-chloro-3-methoxyphenyl)-5-(4-(piperazin-1-yl)phenyl)pyridin-2-amine] | 2.7 °C
COc1cc(-c2cc(-c3ccc(N4CCNCC4)cc3)cnc2N)ccc1C [Compound 23, 3-(3-methoxy-4-methylphenyl)-5-(4-(piperazin-1-yl)phenyl)pyridin-2-amine] | 3.8 °C
Nc1ncc(-c2cccc(N3CCNCC3)c2)cc1-c1ccnc2ccccc12 [Compound 30, 5-(3-(piperazin-1-yl)phenyl)-3-(quinolin-4-yl)pyridin-2-amine] | 2.5 °C
COc1cc(OC)cc(-c2cc(-c3ccc(N4CCNCC4)cc3)cnc2N)c1 [Compound 17, 3-(3,5-dimethoxyphenyl)-5-(4-(piperazin-1-yl)phenyl)pyridin-2-amine] | 3.5 °C
Nc1ncc(-c2ccc(N3CCNCC3)cc2)cc1-c1ccc2c(c1)OCCO2 [Compound 19, 3-(2,3-dihydrobenzo[b][1,4]dioxin-6-yl)-5-(4-(piperazin-1-yl)phenyl)pyridin-2-amine] | 4.0 °C
COc1cc(OC)cc(-c2cncc(-c3ccc(N4CCNCC4)cc3)c2)c1 [Compound 33, 1-(4-(5-(3,5-dimethoxyphenyl)pyridin-3-yl)phenyl)piperazine] | 4.7 °C
CNc1ncc(-c2ccc(N3CCNCC3)cc2)cc1-c1cc(OC)c(OC)c(OC)c1 [Compound 24, N-methyl-5-(4-(piperazin-1-yl)phenyl)-3-(3,4,5-trimethoxyphenyl)pyridin-2-amine] | −0.5 °C
COc1cc(-c2cc(-c3ccc(N4CCNCC4)cc3)cnc2C)cc(OC)c1OC [Compound 10, 1-(4-(6-methyl-5-(3,4,5-trimethoxyphenyl)pyridin-3-yl)phenyl)piperazine] | 4.0 °C
COc1cc(-c2cc(-c3ccc(N4CCNCC4)cc3)cnc2N(C)C)cc(OC)c1OC [Compound 25, N,N-dimethyl-5-(4-(piperazin-1-yl)phenyl)-3-(3,4,5-trimethoxyphenyl)pyridin-2-amine] | 0.1 °C
COc1cc(-c2cc(-c3cccc(NS(C)(=O)=O)c3)cnc2N)cc(OC)c1OC [Compound 13, N-(3-(6-amino-5-(3,4,5-trimethoxyphenyl)pyridin-3-yl)phenyl)methanesulfonamide] | 0.9 °C
COc1cc(-c2cc(-c3ccc(N4CCNCC4)cc3)cnc2OC)cc(OC)c1OC [Compound 28, 1-(4-(6-methoxy-5-(3,4,5-trimethoxyphenyl)pyridin-3-yl)phenyl)piperazine] | 0.1 °C
COc1cc(-c2cnn3cc(-c4ccc(N5CCNCC5)cc4)cnc23)cc(OC)c1OC [Compound 32, 3-(3,4,5-trimethoxyphenyl)-6-[4-(1-piperazinyl)phenyl]pyrazolo[1,5-a]pyrimidine] | 2.6 °C
COc1cc(-c2cc(-c3cccc(O)c3)cnc2N)cc(OC)c1OC [Compound K02288, 3-(6-Amino-5-(3,4,5-trimethoxyphenyl)pyridin-3-yl)phenol, reference compound] | 2.0 °C
